Publication PMC4978996 (Scientific Reports, 2016)
pIC50: −log10 of the molar value. Several values for one entry are separate records, joined by “and”; a condition that tells them apart may be missing. Identical values can stand only once.

Tests used:
[1] = system: ChAT; set-up: method as in literature; conditions: ChAT inhibition, experimentally determined value taken from literature; ref literature; cited from earlier work
[2] = system: purified human placental ChAT; set-up: method as in PMID 3361452; conditions: cited from earlier work
[3] = target: T1, AChE (Homo sapiens, UniProt P22303); assay: Modified Ellman's colorimetric assay, AChE activity; format: biochemical
T1 construct: purchased Sigma
T1 sequence (P22303 32-614): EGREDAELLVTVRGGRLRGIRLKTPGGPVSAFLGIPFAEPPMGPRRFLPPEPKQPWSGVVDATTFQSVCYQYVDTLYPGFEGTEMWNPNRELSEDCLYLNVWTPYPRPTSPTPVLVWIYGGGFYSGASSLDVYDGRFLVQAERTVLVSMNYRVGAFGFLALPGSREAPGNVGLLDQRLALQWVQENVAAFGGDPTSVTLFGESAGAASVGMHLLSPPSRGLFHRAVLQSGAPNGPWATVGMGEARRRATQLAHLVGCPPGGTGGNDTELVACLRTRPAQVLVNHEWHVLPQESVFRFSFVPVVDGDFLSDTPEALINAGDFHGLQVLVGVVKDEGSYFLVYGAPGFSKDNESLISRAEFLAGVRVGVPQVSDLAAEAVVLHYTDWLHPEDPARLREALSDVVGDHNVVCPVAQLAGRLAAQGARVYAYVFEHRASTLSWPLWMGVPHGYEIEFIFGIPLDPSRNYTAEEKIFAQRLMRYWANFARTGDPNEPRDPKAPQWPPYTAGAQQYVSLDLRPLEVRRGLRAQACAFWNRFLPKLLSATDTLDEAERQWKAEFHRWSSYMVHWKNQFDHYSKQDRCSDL
Protocol: (§1) A modified version of Ellman’s colorimetric assay was used for the enzymatic activity of BuChE and AChE, as described previously. For BuChE activity, 50 μL/well of a 1:400 diluted solution of a pooled human plasma sample was used. For AChE activity, the 1:400 diluted pooled human plasma samples had been supplied with 50 ng/ml of purified AChE protein (Sigma). These were preincubated with 50 μL/wells of different concentrations of α-NETA for 30 minutes at room temperature. Then, 100 μL of a cocktail (Na/K phosphate buffer, containing 5,5′-dithiobis(2-nitrobenzoic acid) (DTNB, final concentration 0.4 mM) and butyrylthiocholine iodide (Sigma, final concentration 5 mM) or acetylthiocholine iodide (Sigma, final concentration 0.5 mM) were added and the changes in absorbance was monitored at one minutes intervals at 412 nm wavelength. For the AChE activity, the cocktail also contained the selective BuChE inhibitor ethopropazine (Sigma, final concentration 0.1 mM).

[4] = target: T2, BuChE (Homo sapiens, UniProt P06276); assay: biochemical
T2 construct: a 1:400 diluted solution of a pooled human plasma sample was used; from tissue; host or cells: pooled human plasma
T2 sequence (P06276 29-602): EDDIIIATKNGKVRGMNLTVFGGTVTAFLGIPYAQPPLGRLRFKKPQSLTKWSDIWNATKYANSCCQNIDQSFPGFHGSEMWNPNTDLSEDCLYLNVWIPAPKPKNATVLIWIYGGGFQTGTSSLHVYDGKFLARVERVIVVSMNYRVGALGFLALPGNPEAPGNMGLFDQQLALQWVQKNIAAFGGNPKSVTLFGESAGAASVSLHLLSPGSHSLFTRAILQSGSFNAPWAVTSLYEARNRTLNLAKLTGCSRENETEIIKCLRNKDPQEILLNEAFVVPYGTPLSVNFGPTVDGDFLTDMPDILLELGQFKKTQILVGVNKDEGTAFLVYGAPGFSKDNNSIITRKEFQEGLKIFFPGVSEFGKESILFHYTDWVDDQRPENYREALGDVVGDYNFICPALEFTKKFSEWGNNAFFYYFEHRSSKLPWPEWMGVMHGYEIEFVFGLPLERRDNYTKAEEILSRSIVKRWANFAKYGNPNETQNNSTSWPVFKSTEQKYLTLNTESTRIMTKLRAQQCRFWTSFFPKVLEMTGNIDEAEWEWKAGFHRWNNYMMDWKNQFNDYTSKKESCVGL
Protocol: as §1

[5] = target: T3, recombinant human ChAT (Homo sapiens, UniProt P28329); assay: Colorimetric ChAT assay with recombinant human ChAT protein; format: biochemical
T3 construct: His6 (N); made in house; host or cells: E. coli BL21 Rosetta2
T3 sequence (P28329 1-630 isoform P28329-3): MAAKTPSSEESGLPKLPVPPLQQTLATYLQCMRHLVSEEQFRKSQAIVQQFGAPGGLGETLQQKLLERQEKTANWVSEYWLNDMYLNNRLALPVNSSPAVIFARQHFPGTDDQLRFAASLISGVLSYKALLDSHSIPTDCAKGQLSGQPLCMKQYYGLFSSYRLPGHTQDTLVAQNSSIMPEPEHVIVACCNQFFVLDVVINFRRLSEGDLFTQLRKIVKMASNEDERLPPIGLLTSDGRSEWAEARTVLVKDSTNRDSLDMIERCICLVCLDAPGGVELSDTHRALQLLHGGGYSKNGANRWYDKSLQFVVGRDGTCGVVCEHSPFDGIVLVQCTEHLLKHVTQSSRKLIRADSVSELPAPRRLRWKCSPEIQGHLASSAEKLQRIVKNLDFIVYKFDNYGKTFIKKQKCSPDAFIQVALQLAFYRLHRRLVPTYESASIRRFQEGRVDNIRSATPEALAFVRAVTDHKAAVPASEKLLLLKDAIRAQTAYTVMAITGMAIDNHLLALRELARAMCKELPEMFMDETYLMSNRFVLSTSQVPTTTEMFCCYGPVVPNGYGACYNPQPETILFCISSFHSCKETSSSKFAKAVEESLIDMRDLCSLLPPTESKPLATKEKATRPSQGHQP
Protocol: ChAT activity was measured with a new colorimetric assay as described previously, using recombinant ChAT protein. Briefly, 20 μL/wells of 1.5 μg/ml of the recombinant ChAT was incubated with 20 μL/well of different concentrations of α-NETA for 30 minutes at room temperature in dilution buffer (10 mM Tris-HCl, pH 7.4, 150 mM NaCl, 1.0 mM EDTA, 0.05% (v/v) Triton X-100). […]
Then 50 μl of a cocktail-B [phosphate buffered saline, containing 0.93 U/ml choline oxidase (C5896, Sigma-Aldrich), 1/5000 U streptavidin-horseradish peroxidase, 6.3 mM phenol, and 3 mM 4-aminoantipyrine (A4382, Sigma-Aldrich)] was added to each sample including the standards. Absorbance was then monitored using a microplate spectrophotometer reader (Infinite M1000, Tecan) at 500 nm wavelength. ChAT activity (nmol/min/mg of recombinant protein) was calculated according to the following formula: ChAT activity [ChBL-ChS]/t/m, where ChBL is the measured number of mole of choline in control wells lacking the inhibitor and ChAT, ChS is the measured number of mole of choline in the sample wells, the t is the incubation time and m is the mass of ChAT protein added per sample well. […]

Structure (SMILES)	Actual pIC50 / Observed pIC50 [1]	other results
Cc1c[n+](C)ccc1/C=C/c1cccc2ccccc12 [Compound 13]	6.40	–
C[n+]1ccc(/C=C/c2cccc3ccccc23)cc1 [Compound 1]	6.33	–
C[n+]1ccc(/C=C/c2ccc(Cl)c(Cl)c2)cc1 [Compound 5]	5.48	–
C[n+]1ccc(/C=C/c2ccc(F)cc2)cc1 [Compound 9]	4.68	–
C[n+]1ccc(/C=C/c2cccnc2)c2ccccc21 [Compound 23]	3.22	–
C[n+]1ccc(/C=C/c2cccc(Cl)c2)cc1 [Compound 3]	5.64	–
OCC[n+]1ccc(/C=C/c2cccc3ccccc23)c2ccccc21 [Compound 24]	6.28	–
Cc1c[n+](C)ccc1/C=C/c1c[nH]c2ccccc12 [Compound 18]	4.41	–
C[n+]1ccc(/C=C/c2ccccc2)cc1 [Compound 7]	4.83	–
Cc1c[n+](C)ccc1/C=C/c1ccccc1 [Compound 16]	5.30	–
Cc1ccc(/C=C/c2cc[n+](C)cc2)cc1 [Compound 8]	4.70	–
C[n+]1ccc(/C=C/c2ccc(Br)cc2)cc1 [Compound 4]	5.59	–
Cc1c[n+](C)ccc1/C=C/c1ccccc1Cl [Compound 17]	4.77	–
OCC[n+]1ccc(/C=C/c2cccc(Cl)c2)cc1 [Compound 20]	5.62	–
C[n+]1ccc(/C=C/c2ccc(Cl)cc2)cc1 [Compound 6]	5.16	–
C[n+]1ccc(/C=C/c2ccccc2)c2ccccc21 [Compound 21]	5.46	–
OCC[n+]1ccc(/C=C/c2ccccc2)c2ccccc21 [Compound 25]	5.54	–
C[n+]1ccc(/C=C/c2cccc(Br)c2)cc1 [Compound 2]	5.83	–
C[n+]1ccc(/C=C/c2cccs2)c2ccccc21 [Compound 22]	3.60	–
C[N+](C)(C)CCC(=O)c1cccc2ccccc12.[I-] [α-NETA, 2-(α-naphthoyl) ethyltrimethylammonium iodide]	–	Observed pIC50 (reported pIC50) [2]: 5.05; pIC50 ([2]; read-out: IC50 (reported, ChAT)): ~5.05; pIC50 ([3]; 30 min preincubation): ~4.52 and 4.47; inhibition at 10 µM ([3]; at a concentration of 10 μM): 10%; selectivity for ChAT compared to AChE ([3]; based on IC50 ratios): 388 fold and ~ 388 fold; inhibition at 3 µM ([4]; at a concentration of 3 μM): 10%; selectivity for ChAT relative to BuChE ([4]; based on IC50 ratios): ~ 378 fold; pIC50 ([4]; pooled human plasma, 30 min preincubation): ~4.52 and 4.48; higher potency as ChAT inhibitor in this system than reported ([5]; IC50 88 nM versus reported ~9 μM): ~ 100 folds; pIC50 ([5]; recombinant human ChAT, 30 min preincubation): ~7.06 and 7.06
OCC[n+]1ccc(/C=C/c2cccc(Br)c2)cc1 [Compound 19]	5.38	–
C[n+]1ccc(/C=C/c2cccc([N+](=O)[O-])c2)cc1 [Compound 11]	3.83	–
Cc1c[n+](C)ccc1/C=C/c1ccc(Cl)c(Cl)c1 [Compound 15]	5.77	–
C[n+]1ccc(/C=C/c2ccc([N+](=O)[O-])cc2)cc1 [Compound 12]	3.70	–
Cc1c[n+](C)ccc1/C=C/c1cccc(Cl)c1 [Compound 14]	5.80	–
C[n+]1ccc(/C=C/c2ccccc2Cl)cc1 [Compound 10]	4.56	–
